Values quoted from earlier work in patent US8668932B2 (priority 2003, dated 2014).

What was measured:
[1] = tested on: neuronal norepinephrine reuptake
[2] = tested on: dopamine reuptake
[3] = tested on: neuronal serotonin reuptake
[4] = for elimination half-life (T½): in vivo
[5] = tested on: monoamine oxidase
[6] = tested on: histaminergic receptors
[7] = tested on: alpha-1 adrenergic receptors
[8] = not given; remark: listed apart in the source

SMILES	inhibition of neuronal norepinephrine reuptake [1]	inhibition of dopamine reuptake [2]	inhibition of neuronal serotonin reuptake [3]	elimination half-life (T½) [4] [h]	pKa	inhibition of monoamine oxidase [5]	affinity for histaminergic receptors [6]	affinity for alpha-1 adrenergic receptors [7]	plasma protein binding [8]	absolute bioavailability ([4]; oral)	time to steady-state concentrations ([4]; oral multiple dose therapy)	fraction of dose absorbed ([4]; single oral dose, mass balance studies)
CN(C)CC(c1ccc(O)cc1)C1(O)CCCCC1 (stereo not drawn) [ODV, O-desmethylvenlafaxine]	potent inhibitors	weak inhibitors	potent inhibitors	11 ± 2	–	–	–	–	–	–	–	–
COc1ccc(C(CN(C)C)C2(O)CCCCC2)cc1.Cl (racemic) [venlafaxine, (R/S)-1-[2-(dimethylamino)-1-(4-methoxyphenyl)ethyl]cyclohexanol hydrochloride]	potent inhibitors	weak inhibitors	–	5 ± 2	9.4	does not inhibit	no significant affinity	no significant affinity	approximately 30%	about 45%	three	at least 92%
